# Data as given in article PMC9151520 (Archives of Toxicology, 2022).
# “And” between values parts separate entries of the source, which are not always exact repeats. Equal entries are not always repeated. Where two headings read alike, the source gives them in different places.
# What was measured:
# [1] = system: p53 signaling (p53RE-bla HCT-116 cells); assay: cells; format: cell-based; details: for EC50 / Emax: Homo sapiens
# [2] = system: p53 signaling (p53RE-bla HCT-116 cells); assay: cells; format: cell-based
# [3] = system: p53 signaling (p53RE-bla HCT-116 cells); assay: cells; format: cell-based; details: for Emax: HCT-116, read-out: efficacy
# [4] = system: p53 signaling (p53RE-bla HCT-116 cells)
# [5] = rat
# [6] = system: p53 signaling (p53RE-bla HCT-116 cells); assay: cells; details: Homo sapiens
# in vitro = details: male, Sprague Dawley, rat, microsomes, pH 7.4
# [7] = system: p53 signaling (p53RE-bla HCT-116 cells); remark: listed apart in the source
# [8] = system: p53 signaling (p53RE-bla HCT-116 cells); assay: cells; details: Homo sapiens, HCT-116, read-out: p53 activation EC50
# [9] = HCT-116, read-out: EC50, p53 activation, cherry pick confirmation
# [10] = HCT-116, read-out: Efficacy, p53 activation, cherry pick confirmation
# [11] = HCT-116, read-out: p53 activation EC50, cherry pick confirmation
# [12] = HCT-116, read-out: p53 activation EC50, primary screening
# [13] = HCT-116, read-out: p53 activation efficacy, cherry pick confirmation
SMILES,EC50 [2],"EC50 ([3]; Homo sapiens, HCT-116) [µM]",Emax ([3]; Homo sapiens) [%],Depletion after 16 h of incubation with cells [5] [%],EC50 ([6]; HCT-116) [µM],"Emax ([6]; HCT-116, read-out: efficacy) [%]",half-life (in vitro) [min],"p53 activation EC50, cherry pick confirmation [1]","p53 activation EC50, primary screening [1]","p53 activation efficacy, cherry pick confirmation [1]","p53 activation efficacy, primary screening [1]","p53 activation EC50, cherry pick confirmation [4]","p53 activation efficacy, cherry pick confirmation [4]","Viability EC50, cherry pick confirmation (p53RE-bla HCT-116 cells)","Viability EC50, primary screening (p53RE-bla HCT-116 cells)","Viability efficacy, cherry pick confirmation (p53RE-bla HCT-116 cells)","Viability efficacy, primary screening (p53RE-bla HCT-116 cells)","EC50 [6, 11] [µM]","Emax [6, 13] [%]",other results
Cc1cc(=O)oc2cc(O)ccc12 [4-Methylumbelliferone],Inactive,24.2,114,46.53 ± 5.89,25.2,99.5,19.1,,,,,,,,,,,,,"EC50, p53 activation, primary screening [1]: inactive; Efficacy, p53 activation, primary screening [1]: inactive; EC50 [1, 9]: 18.2 µM; Emax [1, 10]: 30%; EC50, p53 activation, cherry pick confirmation [4]: inactive; Efficacy, p53 activation, cherry pick confirmation [4]: inactive; EC50, viability, cherry pick confirmation (p53RE-bla HCT-116 cells): inactive; EC50, viability, primary screening (p53RE-bla HCT-116 cells): inactive; Efficacy, viability, cherry pick confirmation (p53RE-bla HCT-116 cells): inactive; Efficacy, viability, primary screening (p53RE-bla HCT-116 cells): inactive; EC50 [6, 9]: 25.9 µM; Emax [6, 10]: 89.9%"
"O=C1CC2(CCCC2)CC(=O)N1CCCCN1CCN(c2ncccn2)CC1 [buspirone, reference compound]",,,,,,,7.2 ± 2.3,,,,,,,,,,,,,
COP(=S)(OC)SCn1nnc2ccccc2c1=O [Azinphos-methyl],,7.29,,94.04 ± 0.16,11.6,,,,,,,,,,,,,,,"p53 activation EC50 [1]: inactive; p53 activation efficacy [1]: inactive; efficacy [2]: 6.6 ± 0.91 ( 57.05 ± 12.27 ) %; EC50 ([2]; Homo sapiens, HCT-116, 0.5 h): 6.6 µM; efficacy [3]: 7.29 ± 2.15 ( 104.64 ± 29.38 ) %; p53 activation efficacy [7]: 77.2775 and 58.65; p53 activation EC50 [4]: inactive; Viability EC50 (p53RE-bla HCT-116 cells): inactive; Viability efficacy (p53RE-bla HCT-116 cells): inactive; EC50 [8]: 14.9 µM"
COc1c2ccoc2cc2oc(=O)ccc12 [5-Methoxypsoralen],Inactive,13.2,75,45.7 ± 3.67,16.4,72.3,21.1 ± 3.72,inactive,inactive,inactive,inactive,inactive,inactive,inactive,inactive,inactive,inactive,9.45,62.5,"p53 activation EC50, primary screening [4]: inactive; p53 activation efficacy, primary screening [4]: inactive; EC50 [6, 12]: 20.9 µM; Emax ([6]; HCT-116, read-out: p53 activation efficacy, primary screening): 81.3%"
c1ccc2c(c1)[nH]c1cnccc12 [Norharman],Inactive,20,76.4,85.03 ± 0.42,28.1,73.8,,inactive,,inactive,,inactive,inactive,inactive,inactive,inactive,inactive,29.6,71,"EC50 [1, 12]: 41.4 µM; p53 activation EC50, primary screening [4]: inactive; p53 activation efficacy, primary screening [4]: inactive; EC50 [6, 12]: 32.6 µM"
Cc1cccc2c1cc1ccc3cccc4ccc2c1c34 [7-Methylbenzo(a)pyrene],,27.5,,52.01 ± 27.41,34.3,,,,,,,,,,,,,,,"p53 activation Efficacy, No MS [1]: 64.7403%; Emax ([1]; HCT-116, read-out: p53 activation Efficacy, No MS): 59.2%; EC50 ([2]; Homo sapiens, HCT-116, 0.5 h): 32.9 µM; Viability EC50, HLM (p53RE-bla HCT-116 cells): inactive; Viability EC50, No MS (p53RE-bla HCT-116 cells): inactive; Viability EC50, RLM (p53RE-bla HCT-116 cells): inactive; Viability Efficacy, HLM (p53RE-bla HCT-116 cells): inactive; Viability Efficacy, No MS (p53RE-bla HCT-116 cells): inactive; Viability Efficacy, RLM (p53RE-bla HCT-116 cells): inactive"
CCOP(=S)(OCC)Oc1cnc2ccccc2n1 [Quinalphos],Inactive,,,96.66 ± 0.83,9.46,32.7,2.49 ± 0.04,inactive,inactive,inactive,inactive,inactive,inactive,inactive,inactive,inactive,inactive,7.65,34.3,EC50 [3]: Inactive
CCOP(=S)(NC(C)C)Oc1ccccc1C(=O)OC(C)C (centres unmarked) [Isofenphos],Inactive,0.81,54.3,88.45 ± 1.49,0.75,42.6,1.25 ± 0.47,inactive,inactive,inactive,inactive,inactive,inactive,inactive,inactive,inactive,inactive,0.777,42.6,
